Experimental findings from patent US20220023454A1, “PHOTODYNAMIC METHOD TO DECONTAMINATE SURFACES” (priority 2020, published 2022) are described below.

The subject of experiment [1] is Gram positive or Gram negative bacterial suspension, e.g., E. coli, Salmonella enterica, Staphylococcus aureus, or Bacillus subtilis. Description: Decontamination of lettuce leaves and stainless-steel discs spiked with bacteria, blue LED light, agar plate count. To be noted: 50 μM Phloxin-B, 1 cm distance, blue LED 1, 3, 5, and 10 minutes; lettuce leaf or stainless-steel surface. The protocol: Romaine lettuce leaves are cut into small squares (2×2 cm) and then are disinfected using 300 ppm sodium hypochlorite followed by rinsing three times with sterilized distilled water. Sterile stainless-steel discs are also used as a model for surface decontamination. Each sample is spiked with 50 μL of a Gram positive or Gram negative bacterial suspension, e.g., E. coli, Salmonella enterica, Staphylococcus aureus, or Bacillus subtilis, then dried for 30 minutes. 100 μL of a 50 μM Phloxin-B solution is then added to each spiked leaf or stainless-steel surface. The samples are exposed at a 1 cm distance to the blue LED light source for 1, 3, 5, and 10 minutes. After each exposure time any surviving bacterial cells are recovered in 500 μL of recovery buffer followed by vortexing for 0.5 to 1 minute. The surviving bacterial cells are enumerated using Agar plate count technique. A ≥3 log reduction in the bacterial cell counts is observed.

The next experiment deals with TGEV. Description: Virus added to light-preexposed Ph-B solution, cell culture titration. Conditions: 50 μM Phloxin-B pre-exposed to blue LED light 1-10 min; 1 to 5 min contact. On the set-up: species or system transmissible gastroenteritis virus. How it is done: (§1) Several 50 μM stocks of Phloxin-B solution are prepared (500 μL each). Each stock is pre-exposed to the blue LED light for specific times (e.g., 1, 2, 3, 5, and 10 min). Immediately after light exposure, 50 μL of the tested virus (FCV, TuV, and TGEV) is added to the light-preexposed Ph-B solution for about 1 to 5 min contact times before titrating the surviving virus using a cell culture assay. A >3 log reduction in the virus titer is observed.

The next experiment deals with Tulane virus (TuV). As to the kind of experiment: Photodynamic inactivation of TuV in water with photosensitizer and light. To be noted: for efficacy against TuV: photodynamic treatment, under the conditions tested (10, 25, 50 μM PS; light exposure). The protocol:
(§2) The inactivation of HuNoV surrogates (e.g., feline calicivirus (FCV) and Tulane virus (TuV)) was studied, by exposure to light in the presence of photosensitizer dyes in water, FCV and TuV were mixed with different concentrations (10, 25, and 50 μM) of three different PS (Rose Bengal (RB), Phloxine B (Ph-B) and chlorophyllin) and then exposed to light for a period of time, e.g., 1, 3, 5, or 10 minutes. While not being limited to a mode of action, capsid integrity and/or genome integrity may be impacted by the exposure of viruses to light in the presence of the PS.
(§3) Shellfish and fresh produce are the most frequent foods implicated in human norovirus (HuNoV) outbreaks in the US. Decontamination of virus-contaminated waters used in depuration of oysters, clams or mussels, and in post-harvest washing of fresh produce, is a mitigation strategy for this human biothreat risk. […] Although the PDT has been studied extensively for bacterial inactivation, studies on its use for viral inactivation in food and water are scarce. Inactivation of >4 log TCID50 of two HuNoV surrogates (feline calicivirus (FCV) and Tulane virus (TuV)) in water was observed upon exposure to LED-blue light for 3 to 10 min using Rose Bengal (RB) or Phloxine-B (Ph-B) as photosensitizers. The virucidal effect of PDT may depend on the type of treated virus, the light source, the type and concentration of the photosensitizer (PS), and the operational parameters such as the distance between the light source and treated object and/or exposure time.

The next experiment relates to TuV. As to the kind of experiment: Virus added to light-preexposed Ph-B solution, cell culture titration. On the set-up: species or system Tulane virus. Conditions: 50 μM Phloxin-B pre-exposed to blue LED light 1-10 min; 1 to 5 min contact. How it is done: as §1
The subject of another experiment is FCV. Described as above. On the set-up: species or system feline calicivirus. To be noted: 50 μM Phloxin-B pre-exposed to blue LED light 1-10 min; 1 to 5 min contact. How it is done: as §1
A further experiment deals with feline calicivirus (FCV). As to the kind of experiment: Photodynamic inactivation of FCV in water with photosensitizer and light. To be noted: for log reduction in FCV: 3 minute exposure; for efficacy against FCV: photodynamic treatment, under the conditions tested (10, 25, 50 μM PS; light exposure). How it is done: as §2, §3

Consider `O=C([O-])c1c(Cl)c(Cl)c(Cl)c(Cl)c1-c1c2cc(Br)c(=O)c(Br)c-2oc2c(Br)c([O-])c(Br)cc12.[Na+].[Na+]` [Ph-B, Phloxine B], for which the “log reduction in the bacterial cell counts” value in experiment [1] is listed as ≥ 3 log. Further, the “log reduction in the virus titer (TGEV)” value in the experiment with TGEV is on record as > 3 log. The “log reduction in TuV” value in the experiment with Tulane virus (TuV) (5 minute exposure, 50 μM Ph-B) is reported as 4 log. Further, the “efficacy against TuV” value with Tulane virus (TuV) is “high efficacy”. In the experiment on TuV, the “log reduction in the virus titer (TuV)” value is reported as > 3 log. For the same molecule, the “log reduction in the virus titer (FCV)” value with FCV was > 3 log. Moreover, in the experiment on feline calicivirus (FCV) (50 μM Ph-B), the “log reduction in FCV” value is given as 4 log. For the same molecule, the “efficacy against FCV” value in the experiment on feline calicivirus (FCV) is “high efficacy”.

With `O=C1OC2(c3cc(I)c(O)c(I)c3Oc3c2cc(I)c(O)c3I)c2c(Cl)c(Cl)c(Cl)c(Cl)c21` [RB, Rose Bengal], in the experiment with Tulane virus (TuV) (10 minute exposure, 50 μM RB), the “log reduction in TuV” value is recorded as 4 log. Also, the “efficacy against TuV” value in the experiment with Tulane virus (TuV) is “high efficacy”. In addition, in the experiment on feline calicivirus (FCV) (25 μM RB), the “log reduction in FCV” value turned out to be 4 log. In the experiment on feline calicivirus (FCV), the “efficacy against FCV” value is given as “high efficacy”.

Consider chlorophyllin, for which, in the experiment on feline calicivirus (FCV), the “efficacy against FCV” value is “low efficacy”.
